# Source: US20250295083A1, “METHODS FOR PRODUCING AN ORGANOGENIC CALLUS AND COMPOSITIONS, SYSTEMS, AND METHODS RELATING THERETO” (Pairwise Plants Services, Inc., priority 2022, published 2025)
# “Also recorded” adds a separate entry of the source.
# Tested on: cross sections of the stems (including nodes) of the lateral shoots, cherry variety Sweetheart
# Assay: Callus induction from cut stem cross sections (including nodes) cultured on media
# Type: cell-based, sweet cherry (Prunus avium)
# Conditions: 24° C., 8 weeks in the dark
# Procedure: The cherry variety, Sweetheart, was grown in a greenhouse and stem tissue was collected. The stem tissue was grown in vitro on propagation media (Table 1) at 25° C., 40 μM light with a 16 hour photoperiod until lateral shoots began to emerge. The stem tissue with lateral shoots were grown on the propagation media for no more than 10 days and were collected by day 10.
# Leaves and petioles were removed from the lateral shoots and cross sections of the stems (including nodes) of the lateral shoots were cut. The cross sections of the stems were about 0.5 mm wide. For the purpose of inducing callus formation, the cut material was then placed onto either Garin media as described in Garin, E., et al. (1997). Plant cell, tissue and organ culture, 48(2), 83-91, media comprising 2 mg TDZ, media comprising 5 mg TDZ, or media comprising 10 mg TDZ and cultured at 24° C. for 8 weeks in the dark. The plant material was moved to fresh media approximately every three weeks. If endophyte growth was noted as the experiment was progressing, then the media was supplemented with 200 mg/L cefoxatime. Approximately 149 nodes were processed and cultured on the media containing 5 mg TDZ. Approximately 149 nodes were processed and cultured on the media containing 10 mg TDZ. Approximately 324 nodes were processed and cultured on the Garin media. The lateral shoots were cultured for a total of 8 weeks on the medias described above and then observed for the formation of callus.
smiles,measurement,setting,value
"O=C(Nc1ccccc1)Nc1cnns1 [TDZ, thidiazuron]",Observations (callus formation),media comprising 2 mg TDZ,Small amount of callus formed
same,Observations (callus formation),media comprising 5 mg TDZ,Moderate amount of callus but much
same,Observations (callus formation),media comprising 10 mg TDZ (10 mg/L),many more of the tissues developing callus; also recorded: along with considerably more mass being
same,tissues forming callus,media comprising 10 mg TDZ,Nearly 100% of tissues forming callus
